Source: US7785607B2 (priority 2004, dated 2010)
Where two headings read alike, the source gives them in different places.

Tested on: IFN-gamma-producing T lymphocytes (PBMC)
Assay type: cell-based, human
Conditions: for SFCs/2.5 × 10^5 cells: μg/mL: proteins 2 each, ESAT-6 pool 50, CFP-10 pool 8, both pools 58, PHA 1, PPD 10

## phytohemagglutinin [PHA]
  Absolute value (spots in control wells subtracted): 237
  response scored positive or negative: positive
[…], mean of duplicate wells
  SFCs/2.5 × 10^5 cells: 240 SFCs/2.5 × 10^5 cells
Sample 1b latent tuberculosis
  Absolute value (spots in control wells subtracted): 236
Sample 1b latent tuberculosis, mean of duplicate wells
  SFCs/2.5 × 10^5 cells: 240 SFCs/2.5 × 10^5 cells
Sample 1e anergic subject
  response scored positive or negative: negative
Sample 1e anergy
  Absolute value (spots in control wells subtracted): 6
  SFCs/2.5 × 10^5 cells: 11 SFCs/2.5 × 10^5 cells
Sample 1d healthy control
  response scored positive or negative: positive
